The values below come from patent US5635516A, “(Thia) cycloalkyl[B]indole compounds as anti-inflammatory agents” (Adir et Compagnie, priority 1994, dated 1997).

In assay [1] the test system is phorbol 12-myristate-13-acetate induced ear swelling. Briefly: Acute cutaneous inflammation in mice (phorbol 12-myristate-13-acetate test). Format: in vivo. The conditions noted are these: Mus musculus; topical on ears of mice 30 minutes before phorbol 12-myristate-13-acetate; swelling of the ear at 6 hours. On the procedure: In the following test, the measurements were carried out on groups of five mice. The tests on the groups of control mice are carried out at the same time as those on the groups of mice which have received the test compounds.
5 μg of phorbol 12-myristate-13-acetate in 20 μl of an ethanol/water mixture (8:2) are applied to the front and rear surfaces of the right ears of the mice, 30 minutes after the application in a similar manner of the test compounds or of the vehicle (2×20 μl at 5-minute intervals in absolute alcohol). The swelling of the ear is measured 6 hours later with the aid of a Dyer micrometer. That measurement is used as the inflammation index.

The test system of another assay is 5-lipoxygenase. Put plainly: LTB4 production by rabbit granulocytes stimulated in vitro by A 23187 (enzyme immunoassay). Format: cell-based. The following applies: 10-^7 M. An excerpt: (§1) The object of this study is to determine the effects of compounds of the invention on the lipoxygenase and cyclo-oxygenase activities of rabbit granulocytes stimulated in vitro by A 23187, by measuring the levels of PGE2 and LTB4 thus liberated by means of an enzyme immunoassay (EIA). The granulocytes are isolated from rabbit blood collected from the main artery of the ear according to the method described by Trush et al. (1978). They are suspended, at a density of 10^6 cells/cm^3, in a phosphate buffer (mM): NaCl: 137; KCl: 2.68; Na2 HPO4 : 8.1; KH2 PO4 : 1.47; CaCl2 : 0.9; MgCl2 : 0.5 The freshly obtained granulocytes are pre-incubated for a period of 15 minutes at 37° C. in the presence of the test products. The results are expressed as percentages of the positive control. The values are presented as the mean±s.e.m. of three measurements carried out on the same day, for the "screening" study, and of three measurements carried out on three different days for the IC50 study. The IC50 values and the Hill number values (Hn) are determined by modelling using the Hill equation.

Another assay has as its system cyclo-oxygenase. Put plainly: PGE2 production by rabbit granulocytes stimulated in vitro by A 23187 (enzyme immunoassay). The class given is cell-based. The following applies: 10-^7 M.
Description: as §1

Each structure is given as a SMILES string.

As a reminder, the IC50 is the midpoint of a concentration-inhibition curve. A higher IC50 goes with a need for much substance. Take `O=C(O)Cn1c2c(c3cc(OCc4ccc5ccccc5n4)ccc31)CCCCCC2` [Example 4, 2-{3-[(QUINOL-2-YL)METHYLOXY]-5,6,7,8,9,10,11-HEPTAHYDRO-CYCLOOCT[b]INDOLE}ACETIC ACID]: in assay [1], the half-inhibitory concentration (IC50) worked out at 15 µM.
As for `CCOC(=O)Cn1c2c(c3cc(OCc4ccc5ccccc5n4)ccc31)CCCCCC2` [Example 2], the “inhibition of the production of LTB4” value in the assay on 5-lipoxygenase is “completely”. Besides, the “effect on the production of PGE2” value with cyclo-oxygenase is on record as “without reducing”. This compound came in with an IC50 in assay [1] of 20 µM.
